{"source": "patent US20050107450A1", "about": "“Dosing regimen for ppar-gamma activators” (priority 2001, published 2005)", "key": {"[1]": {"test_system": "Normal Han Wistar female adult rats", "experiment": "Study 1: rat model of PPAR-gamma activator induced fluid retention/edema", "format": "in vivo", "details": "8 mg/kg bid oral, 21 days, compared with vehicle treated control rats", "procedure": "Rat Model of PPAR-Gamma Activator Induced Fluid Retention/Edema\nNormal Han Wistar female adult rats were housed in metabolic cages and orally dosed (8 mg/kg, bid) with PPAR-gamma activator or vehicle (PEG400, 1 ml/kg) for 21 days. Electrolyte and water balance, plasma volume, hematocrit, and interstitial fluid volume were measured. […] In addition, there was a 50% increase in interstitial fluid volume, correlating to an edematous state."}, "[2]": {"test_system": "Normal Han Wistar female adult rats", "experiment": "Study 2: rat model of PPAR-gamma activator induced cardiovascular changes leading to fluid retention and edema", "format": "in vivo", "procedure": "Rat Model of PPAR-Gamma Activator Induced Cardiovascular Changes Leading to Fluid Retention and Edema\nNormal Han Wistar female adult rats were chronically instrumented for measurement of cardiac output, blood pressure and total peripheral resistance and orally dosed (8 mg/kg, bid) with PPAR-gamma activator or vehicle (PEG400, 1 ml/kg) for 10 days. Data were collected for 7 days prior to the start of dosing, for 10 days of dosing, and for 7 days after discontinuation of dosing. […] The decrease in total peripheral resistance is believed to be the initial pharmacodynamic effect of PPAR-gamma activators leading to fluid retention and edema."}, "[3]": {"test_system": "Zucker Diabetic Fatty (ZDF) rats", "protocol": "Model of PPAR-Gamma Activator Induced Efficacy/Glycemic Control\nTwo glucose-matched groups (n=6/group) of Zucker Diabetic Fatty (ZDF) rats, 7-8 weeks of age, were treated with vehicle (n-methylglucamine, 0.05M, 1 ml/kg, p.o.) or PPAR-gamma activator (5 mg/kg, bid)."}, "ZDF rats": {"test_system": "ZDF rats", "details": "for heart weight/body weight ratio versus normal range: literature normal 0.23 (0.19-0.25); for rats with continued glycemic control (non-fasted plasma glucose less than 250 mg/dl): five weeks, of 8 rats", "protocol": "Less Than Daily Dosing with PPAR-gamma Activator\nThree groups of 8 plasma glucose-matched ZDF rats with non-fasted glucose values greater than 250 mg/dl were dosed with PPAR-gamma activator. During the study plasma glucose and serum albumin were measured weekly, HbA1c was measured every other week, and heart weights and body weights were measured terminally. Reduction of plasma glucose and HbA1c are markers for anti-diabetic efficacy (glycemic control). Decreased plasma albumin concentration is a marker for plasma volume expansion or hemodilution. The heart weight-to-body weight ratio is a marker for increased cardiac output secondary to volume expansion.\nAll three groups were initially dosed with PPAR-gamma activator for one week at 5 mg/kg twice daily, in order to achieve glycemic control as shown by plasma glucose less than 250 mg/dl, and volume expansion as shown by reduced serum albumin.\nFollowing the first week one group (Group BID) was continued on the daily dosing regimen while the other two were moved to less than daily dosing. Group BID continued to be dosed at 5 mg/kg twice daily, Group MWF was dosed at 10 mg/kg per day three times weekly (Monday/Wednesday/Friday), and Group MF was dosed at 10 mg/kg per day twice weekly (Monday/Friday). These three dosing regimens were continued for five weeks."}, "[4]": {"details": "after dosing was discontinued (10 days of 8 mg/kg bid)"}}, "note": "Read-outs that look alike come from different tables or passages of the source.", "data": [{"smiles": "Cc1oc(-c2ccccc2)nc1CCOc1ccc(C[C@H](Nc2ccccc2C(=O)c2ccccc2)C(=O)O)cc1", "note": "[GI262570, farglitazar]", "values": [{"measurement": "decrease in hematocrit", "setting": "[1]", "result": 6, "unit": "%"}, {"measurement": "electrolyte and water retention", "setting": "[1]", "result": "sustained increase"}, {"measurement": "increase in interstitial fluid volume", "setting": "[1]", "result": 50, "unit": "%"}, {"measurement": "increase in plasma volume", "setting": "[1]", "result": 6, "unit": "%"}, {"measurement": "onset of change in total peripheral resistance and cardiac output after the initial dose", "setting": "[2]; 8 mg/kg bid oral", "result": "within six hours"}, {"measurement": "time at which total peripheral resistance and cardiac output changes reached steady state", "setting": "[2]; 8 mg/kg bid oral", "result": "by treatment day four"}, {"measurement": "cardiac output", "setting": "[2]; 8 mg/kg bid oral, 10 days", "result": "increased"}, {"measurement": "total peripheral resistance", "setting": "[2]; 8 mg/kg bid oral, 10 days", "result": "decreased"}, {"measurement": "full recovery of total peripheral resistance and cardiac output", "setting": "[2]; [4]", "result": "after four days"}, {"measurement": "time until total peripheral resistance and cardiac output began to return toward control values", "setting": "[2]; [4]", "result": "≤ 24", "unit": "h"}, {"measurement": "average non-fasted plasma glucose", "setting": "[3]; 5 mg/kg bid, after four weeks, at the time dosing was discontinued, vehicle 464 mg/dl", "result": 154, "unit": "mg/dL"}, {"measurement": "fluid status of treated rats", "setting": "[3]; 5 mg/kg bid, after four weeks, n=6", "result": "volume expanded and two were overtly edematous"}, {"measurement": "hematocrit, end-of-treatment value", "setting": "[3]; 5 mg/kg bid, four weeks", "result": 47, "unit": "%"}, {"measurement": "average plasma glucose", "setting": "[3]; 10 days after discontinuation of 5 mg/kg bid treatment, vehicle 462 mg/dl", "result": 175, "unit": "mg/dL"}, {"measurement": "time for hematocrit to return to control value", "setting": "[3]; after discontinuation of 5 mg/kg bid", "result": "≤ 3", "unit": "days"}, {"measurement": "hematocrit after discontinuation (control value)", "setting": "[3]; within 3 days after discontinuation of 5 mg/kg bid", "result": 52, "unit": "%"}, {"measurement": "heart weight/body weight ratio versus normal range", "setting": "ZDF rats; BID dose group", "result": "increased beyond the normal range"}, {"measurement": "increase in terminal heart weight to body weight ratio", "setting": "ZDF rats; BID group compared to the MWF and MF dose groups", "result": 13, "unit": "%"}, {"measurement": "serum albumin concentration versus pre-treatment baseline", "setting": "ZDF rats; BID group, throughout dosing", "result": "remained below the pre-treatment baseline value"}, {"measurement": "rats with continued glycemic control (non-fasted plasma glucose less than 250 mg/dl)", "setting": "ZDF rats; Group BID, 5 mg/kg twice daily", "result": 8}, {"measurement": "rats with continued glycemic control (non-fasted plasma glucose less than 250 mg/dl)", "setting": "ZDF rats; Group MF, 10 mg/kg per day twice weekly", "result": 5}, {"measurement": "rats with continued glycemic control (non-fasted plasma glucose less than 250 mg/dl)", "setting": "ZDF rats; Group MWF, 10 mg/kg per day three times weekly", "result": 6}, {"measurement": "plasma glucose during the last two weeks of study", "setting": "ZDF rats; MWF and MF dose groups (11 responding rats) versus BID, still well below pre-dosing levels", "result": "slightly higher"}, {"measurement": "heart weight/body weight ratio versus normal range", "setting": "ZDF rats; MWF and MF dose groups", "result": "within normal ranges"}, {"measurement": "serum albumin concentration versus pre-treatment baseline", "setting": "ZDF rats; MWF and MF groups, by day 14 of reduced frequency dosing", "result": "returned to and remained at pre-treatment baseline values"}, {"measurement": "mean non-fasted plasma glucose", "setting": "ZDF rats; after initial week of 5 mg/kg twice daily, all rats, pre-treatment 321 mg/dl", "result": 138, "unit": "mg/dL"}, {"measurement": "serum albumin concentration", "setting": "ZDF rats; after initial week of 5 mg/kg twice daily, all rats, pre-treatment 3.8 gm/dl", "result": 3.5, "unit": "gm/dl"}, {"measurement": "HbA1c", "setting": "ZDF rats; all 19 animals with glycemic control (BID, MWF, MF groups)", "result": "below 6%"}]}]}
